Source: article PMC12639897 (Journal of Translational Medicine, 2025)

Target: T1, β-catenin (Homo sapiens, UniProt P35222)
T1 sequence (P35222 2-781): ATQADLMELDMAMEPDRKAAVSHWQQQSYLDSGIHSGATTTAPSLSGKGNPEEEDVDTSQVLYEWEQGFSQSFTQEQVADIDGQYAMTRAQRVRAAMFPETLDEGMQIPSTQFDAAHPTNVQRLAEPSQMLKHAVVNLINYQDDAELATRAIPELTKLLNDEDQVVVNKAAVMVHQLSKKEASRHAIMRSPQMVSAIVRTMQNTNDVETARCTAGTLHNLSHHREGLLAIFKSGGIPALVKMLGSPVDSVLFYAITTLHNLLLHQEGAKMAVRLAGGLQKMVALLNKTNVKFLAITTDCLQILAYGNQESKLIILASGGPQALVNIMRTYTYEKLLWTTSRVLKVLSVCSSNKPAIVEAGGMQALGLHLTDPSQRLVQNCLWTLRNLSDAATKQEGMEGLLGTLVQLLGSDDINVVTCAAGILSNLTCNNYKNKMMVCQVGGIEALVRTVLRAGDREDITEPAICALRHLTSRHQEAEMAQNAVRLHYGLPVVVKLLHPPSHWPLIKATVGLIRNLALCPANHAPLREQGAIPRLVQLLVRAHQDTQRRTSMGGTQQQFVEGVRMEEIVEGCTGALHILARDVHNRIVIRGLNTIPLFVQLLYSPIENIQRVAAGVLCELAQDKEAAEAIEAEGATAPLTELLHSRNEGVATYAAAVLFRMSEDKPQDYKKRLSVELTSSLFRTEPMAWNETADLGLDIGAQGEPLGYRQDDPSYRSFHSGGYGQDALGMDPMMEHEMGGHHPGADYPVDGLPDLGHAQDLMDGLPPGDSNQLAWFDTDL
Assay: Biolayer interferometry
Type: binding

SMILES: Cc1cccc2c3c(ccc12)C1=C(C(=O)C3=O)[C@@H](C)CO1 [DHTS, 15,16-Dihydrotanshinone I]
- Kd: 14.6 µM
